Test systems include BT-549; CAKI-1; COLO 205; HCT-15; HOP-62; KM12; MDA-MB-435; NCI-H522; OVCAR-4; SF-295; SF-539; SK-MEL-2; TK-10; UACC-62; UO-31; HL-60; K562; NCI-H460.
What all share (test): NCI tumour cell line growth inhibition, 48 h

This note sets out measurements from ChEMBL document CHEMBL1201862, “PubChem BioAssay data set” (2004).

Each structure is given as a SMILES string.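 48-hour exposure; five concentrations; linearly interpolated endpoints. The concentration for 50% growth inhibition is given as GI50.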 Active and inactive are the calls of the source. No stated cut-off is given here; in the data, active = GI50 up to about 1.1 µM and inactive = higher.

Turning to `Nc1nc(N)c2ncn(Cc3c(Cl)cccc3Cl)c2n1`, the GI50 in the test with BT-549 is > 100 µM (inactive); with CAKI-1, > 100 µM (inactive); with COLO 205, > 100 µM (inactive); with HCT-15, more than 100 µM; in the test with HOP-62 it was > 100 µM (inactive); in the test on KM12, > 100 µM (inactive). Moreover, the GI50 in the test with MDA-MB-435, in the test on NCI-H522, in the test on OVCAR-4, in the test on SF-295, in the test on SF-539 and in the test on SK-MEL-2 was > 100 µM (inactive) in each case. Besides, the GI50 in the test on TK-10, in the test with UACC-62 and in the test on UO-31 was > 100 µM (inactive) in each case.

On to `CO/C(N)=C(C#N)/N=C/c1ccco1`, for which the GI50 was > 100 µM (inactive) in the test on BT-549; > 100 µM (inactive) in the test on CAKI-1; > 100 µM (inactive) in the test on COLO 205; more than 100 µM in the test with HCT-15; > 100 µM (inactive) with HL-60; > 100 µM (inactive) in the test with HOP-62. Besides, the GI50 in the test with K562, in the test with KM12, with MDA-MB-435, in the test on NCI-H522, with OVCAR-4 and with SF-295 was > 100 µM (inactive) in each case. For the same molecule, the GI50 in the test with SK-MEL-2, in the test with TK-10, in the test on UACC-62 and in the test on UO-31 was > 100 µM (inactive) each time.

`CC(C)(C)OC(=O)N1C(=O)OC[C@@H]2C=C[C@@H]21`: the GI50 with BT-549 is > 100 µM (inactive); with CAKI-1, > 100 µM (inactive); in the test on COLO 205, > 100 µM (inactive); with HCT-15 it was more than 100 µM; with HL-60 it was > 100 µM (inactive); in the test on HOP-62, > 100 µM (inactive). Further, the GI50 in the test on KM12, in the test on MDA-MB-435, with NCI-H460, in the test with NCI-H522, in the test on OVCAR-4 and in the test on SF-295 was > 100 µM (inactive) in each case. In addition, the GI50 with SF-539, in the test on SK-MEL-2, in the test on TK-10 and in the test with UACC-62 was > 100 µM (inactive) throughout.

Regarding `Cc1c(C)c(C)c(Cn2[nH]c(=O)n(C)c2=O)c(C)c1C`, the GI50 with BT-549 is > 100 µM (inactive); in the test with CAKI-1 it was > 100 µM (inactive); in the test with COLO 205, > 100 µM (inactive); with HCT-15, more than 100 µM; in the test on HL-60, > 100 µM (inactive); in the test on HOP-62, > 100 µM (inactive). The GI50 with K562, with KM12, in the test with MDA-MB-435, in the test on NCI-H460, with NCI-H522 and in the test with SF-295 was > 100 µM (inactive) each time. In addition, the GI50 in the test on SF-539, in the test on SK-MEL-2, in the test on TK-10, in the test on UACC-62 and with UO-31 was > 100 µM (inactive) in each case.

As for `C[C@]12CC[C@@H]3c4ccc(O)cc4CC[C@H]3[C@@H]1C/C(=C\c1ccncc1)[C@@H]2O`, the GI50 was 3.86 µM (inactive) in the test on BT-549; 12.8 µM (inactive) in the test with CAKI-1; 5.18 µM (inactive) with COLO 205; 4.22 µM in the test with HCT-15; 8.51 µM (inactive) in the test on HL-60; 14.8 µM (inactive) with HOP-62. Moreover, the GI50 was 5.98 µM (inactive) in the test on KM12; 2.92 µM (inactive) in the test on MDA-MB-435; 6.32 µM (inactive) with NCI-H460; 3.73 µM (inactive) in the test on NCI-H522; 14.8 µM (inactive) in the test with OVCAR-4; 4.29 µM (inactive) in the test on SF-295. Also, the GI50 in the test with SK-MEL-2 was 11.4 µM (inactive); with TK-10, 22.9 µM (inactive); with UACC-62 it was 10.8 µM (inactive); in the test on UO-31, 21.5 µM (inactive).
